US20240252596A1, “Injectable Polymeric Biopharmaceutical Formulations” (The Board of Trustees of the Leland Stanford Junior …, priority 2023, published 2024)

Columns and labels:
[1] = Syringe force measurements of liquid carriers alone after 48 h; type: physicochemical; conditions: media alone in syringe, after 48 h at ambient temperature
Protocol: To investigate the syringe force profile for various liquid carriers in syringes (e.g., break loose (initiating) force, and the glide (sustaining) force), the following media alone were loaded into syringes in duplicate (n=2): • 1. triacetin (100%) • 2. benzyl benzoate (100%) • 3. Miglyol 810 (100%) • 4. Miglyol 840 (100%) • 5. benzyl alcohol (100%) • 6. ethyl oleate (100%).
The above syringes were stored for 48 h at ambient temperature, protected from light.
Syringe force measurements (n=2) were conducted on each media after 48 h.

[2] = Liquid carrier studies: suspension performance of BSA/MoNi (5%) microparticles at 460 mg/mL; conditions: for Suspension Performance: BSA/MoNi (5%) microparticles dispersed at 460 mg/mL in the media; for Additional comments (consistency on dispersion, stability of suspension): BSA/MoNi (5%) microparticles dispersed in the media; for time until suspension hardens: sealed in a glass container with parafilm
Protocol: (§1) To investigate the liquid carrier component of the subject compositions, a number of solvents were tested for their suspension performance characteristics.

[3] = Parameters of liquid carriers (density, viscosity, vapor pressure); conditions: liquid carrier
Protocol: as §1

SKH1-E mice = test: Tolerability screen: subcutaneous injection of solvent or solvent blend, adverse skin reaction; type: in vivo; conditions: 10 uL s.c.
Protocol: SKH1-E mice were subcutaneously administered 10 μL of solvent or solvent blend with triacetin (no protein). […] Volume of solvent injected was 2× the solvent volume that would be administered to a mouse in a paste.
Degree of adverse skin reaction was quantified using the grading scale of Table 5: […]

[4] = Syringe force measurements of liquid carriers alone after 48 h; type: physicochemical; conditions: vehicle

For `CC(=O)OCC(COC(C)=O)OC(C)=O` [Triacetin], the “Break loose (N), n = 2” value [1] was 8.1 N, the “Glide force (N), n = 2” value [1] was 6.1 N and the “Suspension Performance” value [2] was “++”. For the same compound, the “Additional comments (consistency on dispersion, stability of suspension)” value (shortened to “Additional comments”) [2] was “A very good non-solvent. Shows”, the Density [3] was 1.16 g/mL and the Vapor pressure [3] was 0.267 Pa. For the same compound, the “Viscosity (@25 C.)” value [3] was 23, the “skin reaction” value (SKH1-E mice) was “no skin swelling or redness” and the “Viscosity (cp)*” value [4] was 23 cp.

In the case of `OCc1ccccc1` [Benzyl Alcohol (BA), Benzyl Alcohol], the “Break loose (N), n = 2” value [1] is reported as 4.8 N, the “Glide force (N), n = 2” value [1] is reported as 2.5 N and the “Suspension Performance” value [2] is reported as “+”. The “Additional comments” value [2] was “Forms very low viscosity”, the Density [3] was 1.04 g/mL and the Vapor pressure [3] was 12 Pa. For the same compound, the “Viscosity (@25 C.)” value [3] was 5.4 and the “Viscosity (cp)*” value [4] was 5 cp.

For `CC(O)CO` (stereo not drawn) [Propylene glycol (PG), Propylene glycol], the “Additional comments” value [2] was “quickly hardens into a sticky”, the “time until suspension hardens” value [2] was “rock (within a couple hours” and the Density [3] was 1.03 g/mL. For the same compound, the Vapor pressure [3] was 11 Pa and the “Viscosity (@25 C.)” value [3] was 48.6.

With `C[S+](C)[O-]` [Dimethyl sulfoxide (DMSO), Dimethyl sulfoxide] the “Additional comments” value [2] was “quickly hardens into a flaky”, the “time until suspension hardens” value [2] was “paste (within 1 hour when sealed” and the Density [3] was 1.09 g/mL. The Vapor pressure [3] was 80 Pa and the “Viscosity (@25 C.)” value [3] was 2.0.

With `CCCCCCCC/C=C\CCCCCCCC(=O)OCC` [ethyl oleate] the “Break loose (N), n = 2” value [1] was 4.2 N, the “Glide force (N), n = 2” value [1] was 3.2 N and the “Viscosity (cp)*” value [4] was 6 cp.

In the case of `O=C(OCc1ccccc1)c1ccccc1` [Benzyl benzoate], the “Break loose (N), n = 2” value [1] is reported as 5.7 N, the “Glide force (N), n = 2” value [1] is reported as 3.5 N and the “Suspension Performance” value [2] is reported as “+”. For the same compound, the “Additional comments” value [2] was “Forms a low viscosity solution”, the Density [3] was 1.11 g/mL and the “Viscosity (@25 C.)” value [3] was 8.29. The “Viscosity (cp)*” value [4] was 8-9 cp.

In the case of `CCO` [Ethyl alcohol], the “Additional comments” value [2] is reported as “Clumps immediately, cannot”, the Density [3] is reported as 0.79 g/mL and the “Viscosity (@25 C.)” value [3] is reported as 1.07.

In the case of `CN1CCCC1=O` [N-methyl-2-pyrrolidone (NMP), N-methyl-2-pyrrolidone], the “Suspension Performance” value [2] is reported as “+/−”, the “Additional comments” value [2] is reported as “Forms very low viscosity” and the Density [3] is reported as 1.03 g/mL. The Vapor pressure [3] was 45 Pa and the “Viscosity (@25 C.)” value [3] was 1.89.
